Experimental data: patent US7087629B2, “Heterocyclylaminomethyloxazolidinones as antibacterials” (AstraZeneca AB, priority 1998, dated 2006)
In brackets after ≈: the same amount, converted by molar mass.

Experiments:
Assay type in all cases: cell-based
[1] = test system: Staphylococcus aureus MRQR (methicillin resistant quinolone resistant); assay: MIC by agar-dilution, Staphylococcus aureus MRQR; conditions: inoculum 10^4 CFU/spot, 37° C., 24 hours
Procedure: (§1) The following results were obtained on a standard in-vitro test system. The activity is described in terms of the minimum inhibitory concentration (MIC) detemined by the agar-dilution technique with an inoculum size of 10^4 CFU/spot. Typically, compounds are active in the range 0.01 to 256 μg/ml.
(§2) Staphylococci were tested on agar, using an inoculum of 10^4 CFU/spot and an incubation temperature of 37° C. for 24 hours—standard test conditions for the expression of methicillin resistance.

[2] = test system: Streptococcus pyogenes C203; assay: MIC by agar-dilution, Streptococcus pyogenes C203; conditions: agar with 5% defibrinated horse blood, 10^4 CFU/spot, 37° C., 5% carbon dioxide, 48 hours
Procedure: as §1, with “μg/ml. Streptococci and enterococci were tested on agar supplemented with 5% defibrinated horse blood, an inoculum of 10^4 CFU/spot and an incubation temperature of 37° C. in an atmosphere of 5% carbon dioxide for 48 hours—blood is required for the growth of some of the test organisms.” for “μg/ml.”

[3] = test system: Staphylococcus aureus Oxford; assay: MIC by agar-dilution, Staphylococcus aureus Oxford; conditions: inoculum 10^4 CFU/spot, 37° C., 24 hours
Procedure: as §1, §2

Enterococcus faecalis = assay: MIC by agar-dilution, Enterococcus faecalis; conditions: agar with 5% defibrinated horse blood, 10^4 CFU/spot, 37° C., 5% carbon dioxide, 48 hours
Procedure: as §1, with “μg/ml. Streptococci and enterococci were tested on agar supplemented with 5% defibrinated horse blood, an inoculum of 10^4 CFU/spot and an incubation temperature of 37° C. in an atmosphere of 5% carbon dioxide for 48 hours—blood is required for the growth of some of the test organisms.” for “μg/ml.”

[4] = test system: Coagulase Negative Staphylococci MR (methicillin resistant); assay: MIC by agar-dilution, Coagulase Negative Staphylococci MR; conditions: inoculum 10^4 CFU/spot, 37° C., 24 hours
Procedure: as §1, §2

[5] = test system: Coagulase Negative Staphylococci MS (methicillin sensitive); assay: MIC by agar-dilution, Coagulase Negative Staphylococci MS; conditions: inoculum 10^4 CFU/spot, 37° C., 24 hours
Procedure: as §1, §2

[6] = test system: Staphylococcus aureus Novb. Res (Novobiocin resistant); assay: MIC by agar-dilution, Staphylococcus aureus Novb. Res; conditions: inoculum 10^4 CFU/spot, 37° C., 24 hours
Procedure: as §1, §2

Bacillus subtilis = assay: MIC by agar-dilution, Bacillus subtilis; conditions: inoculum 10^4 CFU/spot
Procedure: as §1

- MIC [1]: 1 µg/mL (≈ 2.76 µM)
- MIC [2]: 1 µg/mL (≈ 2.76 µM)
- MIC [3]: 0.5 µg/mL (≈ 1.38 µM)
- MIC (Enterococcus faecalis): 2 µg/mL (≈ 5.52 µM)
- MIC [4]: 1 µg/mL (≈ 2.76 µM)
- MIC [5]: 0.5 µg/mL (≈ 1.38 µM)
- MIC [6]: 1 µg/mL (≈ 2.76 µM)
- MIC (Bacillus subtilis): 0.5 µg/mL (≈ 1.38 µM)
Compound: O=C1O[C@@H](CNc2ccon2)CN1c1ccc(N2CCOCC2)c(F)c1 [Example 2, 5(S)-Isoxazol-3-ylaminomethyl-3-(3-fluoro-4-morpholinophenyl)-oxazolidin-2-one]
